Experimental data from PubChem BioAssay (NCI).
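Growth conditions: 96-well plates. Treatment: test compound, 48 hours, 5 concentrations. Analysis: linear interpolation between bracketing concentrations; unreached endpoints set to highest concentration. Abbreviation: GI50, concentration required for 50% inhibition of growth. TGI: concentration producing complete growth inhibition.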

What was measured:
Assay in all cases: DTP human tumour cell line panel, 48 h
T-47D breast = test system: T-47D breast
SW-620 colon = test system: SW-620 colon
PC-3 prostate = test system: PC-3 prostate
OVCAR-8 ovarian = test system: OVCAR-8 ovarian
EKVX NSCLC = test system: EKVX NSCLC
HT29 colon = test system: HT29 colon
COLO 205 colon = test system: COLO 205 colon
786-0 renal = test system: 786-0 renal
MDA-MB-231 breast = test system: MDA-MB-231 breast
MDA-MB-435 = test system: MDA-MB-435
SNB-19 CNS = test system: SNB-19 CNS
NCI-H460 lung = test system: NCI-H460 lung
SK-MEL-28 melanoma = test system: SK-MEL-28 melanoma
OVCAR-5 ovarian = test system: OVCAR-5 ovarian
RXF 393 renal = test system: RXF 393 renal
MCF7 breast = test system: MCF7 breast
SK-MEL-5 melanoma = test system: SK-MEL-5 melanoma
DU-145 prostate = test system: DU-145 prostate
U251 CNS = test system: U251 CNS
UO-31 renal = test system: UO-31 renal
HCT-116 colon = test system: HCT-116 colon
OVCAR-3 ovarian = test system: OVCAR-3 ovarian
NCI-H226 lung = test system: NCI-H226 lung
SK-MEL-2 melanoma = test system: SK-MEL-2 melanoma
HL-60(TB) leukemia = test system: HL-60(TB) leukemia
SF-539 CNS = test system: SF-539 CNS
A549 NSCLC = test system: A549 NSCLC
A498 renal = test system: A498 renal
HS 578T breast = test system: HS 578T breast
SR leukemia = test system: SR leukemia
UACC-257 melanoma = test system: UACC-257 melanoma
TK-10 renal = test system: TK-10 renal
SK-OV-3 ovarian = test system: SK-OV-3 ovarian
HOP-62 NSCLC = test system: HOP-62 NSCLC
KM12 colon = test system: KM12 colon
MOLT-4 leukemia = test system: MOLT-4 leukemia
RPMI-8226 leukemia = test system: RPMI-8226 leukemia
CCRF-CEM leukemia = test system: CCRF-CEM leukemia
SN12C renal = test system: SN12C renal
SF-268 CNS = test system: SF-268 CNS
SNB-75 CNS = test system: SNB-75 CNS
OVCAR-4 ovarian = test system: OVCAR-4 ovarian
ACHN renal = test system: ACHN renal
IGROV1 ovarian = test system: IGROV1 ovarian
HCC-2998 colon = test system: HCC-2998 colon
HOP-92 NSCLC = test system: HOP-92 NSCLC
HCT-15 colon = test system: HCT-15 colon
LOX IMVI melanoma = test system: LOX IMVI melanoma
NCI-H23 lung = test system: NCI-H23 lung
M14 melanoma = test system: M14 melanoma
UACC-62 melanoma = test system: UACC-62 melanoma
BT-549 breast = test system: BT-549 breast
MALME-3M melanoma = test system: MALME-3M melanoma
CAKI-1 renal = test system: CAKI-1 renal

Compound: COc1ccc(/C=C/C(=O)Nc2cc(/C=C\c3cc(OC)c(OC)c(OC)c3)cc(OC)c2OC)cc1OC
- GI50 (T-47D breast): 2210 nM
- TGI (T-47D breast): 8.73 µM
- GI50 (SW-620 colon): 5.05 µM
- TGI (SW-620 colon): > 100 µM
- GI50 (PC-3 prostate): 3.06 µM
- TGI (PC-3 prostate): > 100 µM
- GI50 (OVCAR-8 ovarian): 3.44 µM
- TGI (OVCAR-8 ovarian): > 100 µM
- GI50 (EKVX NSCLC): 3.47 µM
- TGI (EKVX NSCLC): > 100 µM
- GI50 (HT29 colon): 3.64 µM
- TGI (HT29 colon): > 100 µM
- GI50 (COLO 205 colon): 2650 nM
- TGI (COLO 205 colon): 6.55 µM
- GI50 (786-0 renal): 2980 nM
- TGI (786-0 renal): > 100 µM
- GI50 (MDA-MB-231 breast): 6.65 µM
- TGI (MDA-MB-231 breast): > 100 µM
- GI50 (MDA-MB-435): 1290 nM
- TGI (MDA-MB-435): 4.52 µM
- GI50 (SNB-19 CNS): 4.3 µM
- TGI (SNB-19 CNS): > 100 µM
- GI50 (NCI-H460 lung): 3.37 µM
- TGI (NCI-H460 lung): > 100 µM
- GI50 (SK-MEL-28 melanoma): 2870 nM
- TGI (SK-MEL-28 melanoma): > 100 µM
- GI50 (OVCAR-5 ovarian): 6.49 µM
- TGI (OVCAR-5 ovarian): > 100 µM
- GI50 (RXF 393 renal): 2230 nM
- TGI (RXF 393 renal): 6.42 µM
- GI50 (MCF7 breast): 2440 nM
- TGI (MCF7 breast): > 100 µM
- GI50 (SK-MEL-5 melanoma): 1610 nM
- TGI (SK-MEL-5 melanoma): 3.65 µM
- GI50 (DU-145 prostate): 26.6 µM
- TGI (DU-145 prostate): > 100 µM
- GI50 (U251 CNS): 4.22 µM
- TGI (U251 CNS): > 100 µM
- GI50 (UO-31 renal): 2310 nM
- TGI (UO-31 renal): > 100 µM
- GI50 (HCT-116 colon): 3.71 µM
- TGI (HCT-116 colon): > 100 µM
- GI50 (OVCAR-3 ovarian): 5.53 µM
- TGI (OVCAR-3 ovarian): > 100 µM
- GI50 (NCI-H226 lung): 3.62 µM
- TGI (NCI-H226 lung): > 100 µM
- GI50 (SK-MEL-2 melanoma): 3.05 µM
- TGI (SK-MEL-2 melanoma): 9.4 µM
- GI50 (HL-60(TB) leukemia): 2300 nM
- TGI (HL-60(TB) leukemia): 7.66 µM
- GI50 (SF-539 CNS): 3.7 µM
- TGI (SF-539 CNS): > 100 µM
- GI50 (A549 NSCLC): 3.69 µM
- TGI (A549 NSCLC): > 100 µM
- GI50 (A498 renal): 4.92 µM
- TGI (A498 renal): > 100 µM
- GI50 (HS 578T breast): 8.92 µM
- TGI (HS 578T breast): > 100 µM
- GI50 (SR leukemia): 668 nM
- TGI (SR leukemia): > 100 µM
- GI50 (UACC-257 melanoma): 6.5 µM
- TGI (UACC-257 melanoma): > 100 µM
- GI50 (TK-10 renal): 5.13 µM
- TGI (TK-10 renal): > 100 µM
- GI50 (SK-OV-3 ovarian): 3.02 µM
- TGI (SK-OV-3 ovarian): 8.48 µM
- GI50 (HOP-62 NSCLC): 3.15 µM
- TGI (HOP-62 NSCLC): > 100 µM
- GI50 (KM12 colon): 4.22 µM
- TGI (KM12 colon): > 100 µM
- GI50 (MOLT-4 leukemia): 3.35 µM
- TGI (MOLT-4 leukemia): > 100 µM
- GI50 (RPMI-8226 leukemia): 2140 nM
- TGI (RPMI-8226 leukemia): > 100 µM
- GI50 (CCRF-CEM leukemia): 2480 nM
- TGI (CCRF-CEM leukemia): > 100 µM
- GI50 (SN12C renal): 3.96 µM
- TGI (SN12C renal): > 100 µM
- GI50 (SF-268 CNS): 9.1 µM
- TGI (SF-268 CNS): > 100 µM
- GI50 (SNB-75 CNS): 1680 nM
- TGI (SNB-75 CNS): 7.46 µM
- GI50 (OVCAR-4 ovarian): 2490 nM
- TGI (OVCAR-4 ovarian): > 100 µM
- GI50 (ACHN renal): 4.68 µM
- TGI (ACHN renal): > 100 µM
- GI50 (IGROV1 ovarian): 7.48 µM
- TGI (IGROV1 ovarian): > 100 µM
- GI50 (HCC-2998 colon): 6.95 µM
- TGI (HCC-2998 colon): > 100 µM
- GI50 (HOP-92 NSCLC): > 100 µM
- TGI (HOP-92 NSCLC): > 100 µM
- GI50 (HCT-15 colon): 3.58 µM
- TGI (HCT-15 colon): > 100 µM
- GI50 (LOX IMVI melanoma): 4 µM
- TGI (LOX IMVI melanoma): > 100 µM
- GI50 (NCI-H23 lung): 3.48 µM
- TGI (NCI-H23 lung): > 100 µM
- GI50 (M14 melanoma): 3.01 µM
- TGI (M14 melanoma): > 100 µM
- GI50 (UACC-62 melanoma): 2210 nM
- TGI (UACC-62 melanoma): > 100 µM
- GI50 (BT-549 breast): 3.36 µM
- TGI (BT-549 breast): 57.8 µM
- GI50 (MALME-3M melanoma): 2800 nM
- TGI (MALME-3M melanoma): > 100 µM
- GI50 (CAKI-1 renal): 2160 nM
- TGI (CAKI-1 renal): > 100 µM
